From patent publication US11530226B2, “Azepane inhibitors of menin-MLL interaction” (Janssen Pharmaceutica NV, priority 2016, dated 2022)
Values joined by “and” are separate entries in the source; they are usually repeats but may differ in a detail not shown here. Identical values can stand only once. Counter-ions that a name gives are not always drawn.

Columns and labels:
[1] = molecular target: T1, terbium chelate-labeled menin / FITC-MBM1 peptide (Menin/MLL) (Homo sapiens, UniProt O00255, T541A); experiment: Menin/MLL homogenous time-resolved fluorescence (HTRF) assay; assay type: binding; conditions: read-out: (2) Menin HTRF assay (IC50 (nM))
T1 construct: Menin (a. a. l-610-6×his tag) was labeled with terbium cryptate as follows
T1 sequence (O00255 with tags, fused parts or gaps T541A): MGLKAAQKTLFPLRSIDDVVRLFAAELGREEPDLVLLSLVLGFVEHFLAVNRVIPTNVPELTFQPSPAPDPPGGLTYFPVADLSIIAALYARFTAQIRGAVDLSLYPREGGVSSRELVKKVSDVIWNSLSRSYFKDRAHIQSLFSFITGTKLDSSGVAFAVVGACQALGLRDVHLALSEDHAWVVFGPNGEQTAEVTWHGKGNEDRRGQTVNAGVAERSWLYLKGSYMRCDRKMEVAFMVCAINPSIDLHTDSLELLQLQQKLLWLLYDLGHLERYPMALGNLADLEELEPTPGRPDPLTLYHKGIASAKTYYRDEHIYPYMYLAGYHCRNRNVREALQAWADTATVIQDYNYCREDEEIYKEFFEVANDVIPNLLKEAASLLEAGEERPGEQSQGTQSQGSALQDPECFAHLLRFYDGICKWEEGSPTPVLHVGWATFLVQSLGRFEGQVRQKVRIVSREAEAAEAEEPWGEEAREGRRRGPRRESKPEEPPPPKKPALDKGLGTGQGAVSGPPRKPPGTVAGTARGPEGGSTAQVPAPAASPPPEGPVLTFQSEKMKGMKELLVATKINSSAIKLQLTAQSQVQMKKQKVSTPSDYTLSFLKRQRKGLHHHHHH
Experimental: 2) Menin/MLL Homogenous Time-Resolved Fluorescence (HTRF) Assay
To an untreated, white 384-well microtiter plate was added 40 nL 200× test compound in DMSO and 4 μL 2× terbium chelate-labeled menin (vide infra for preparation) in assay buffer (40 mM Tris .HCl, pH 7.5, 50 mM NaCl, 1 mM DTT and 0.05% Pluronic F-127). After incubation of test compound and terbium chelate-labeled menin for 5 min at ambient temperature, 4 μL 2×FITC-MBM1 peptide (FITC-P-alanine-SARWRFPARPGT-NH2) in assay buffer was added, the microtiter plate centrifuged at 1000 rpm for 1 min and the assay mixtures incubated for 15 min at ambient temperature. The relative amount of menin ⋅FITC-MBM1 complex present in an assay mixture is determined by measuring the homogenous time-resolved fluorescence (HTRF) of the terbium/FITC donor/acceptor fluorphore pair using a BMG Pherastar plate reader (ex. 337 nm/terbium cm. 490 nm/FITC cm. 520 nm) at ambient temperature. The degree of fluorescence resonance energy transfer (the HTRF value) is expressed as the ratio of the fluorescence emission intensities of the FITC and terbium fluorophores (P^m 520 nm//F^em 490 nm). The final concentrations of reagents in the binding assay are 100 pM terbium chelate-labeled menin, 75 nM FITC-MBM1 peptide and 0.5%) DMSO in assay buffer. Dose-response titrations of test compounds are conducted using an 11 point, three-fold serial dilution scheme, starting typically at 25 μM.
Compound potencies were determined by first calculating % inhibition at each compound concentration according to equation 1: % inhibition=((HC−LC)−(HTRF^compound−LC))/(HC−LC))*100 (Eqn 1)
Where LC and HC are the HTRF values of the assay in the presence or absence of a saturating concentration of a compound that competes with FITC-MBM1 for binding to menin, and HTRF^compound is the measured HTRF value in the presence of the test compound. HC and LC HTRF values represent an average of at least 16 replicates per plate.
Where Bottom and Top are the lower and upper asymptotes of the dose-response curve, respectively, IC50 is the concentration of compound that yields 50% inhibition of signal and h is the Hill coefficient.
Preparation of Terbium cryptate labeling of Menin: Menin (a. a. l-610-6×his tag) was labeled with terbium cryptate as follows. 2 mg of Menin was buffer exchanged into 1× phosphate buffered saline. 16 uM Menin was incubated with 4-fold molar excess NHS-terbium cryptate (Cisbio Bioassays, Bedford, Mass.) for 2 hours at room temperature. The labeled protein was purified away from free label by running the reaction over a Superdex 200 Increase 10/300 GL column at 0.75 ml/min. Peak fractions were collected, aliquoted and frozen at −80° C.

MV-4-1 1 cells (MLL-AF4) = experiment: Proliferation assay (spheroid-like growth, 8 d, live-cell imaging), MV-4-11; assay type: cell-based, human; conditions: Homo sapiens, MV4-11, 192 h, MV-4-11 cells, absolute IC50 from AUC of confluence, read-out: (3) Spheroid assay MV-4-11 (IC50 (μM))
Experimental: The anti-proliferative effect of menin/MLL protein/protein interaction inhibitor test compounds was assessed in human leukemia cell lines. The cell lines MV-4-1 1 and MOLM14 harbor MEL translocations and express the MEL fusion proteins MLL-AF4 and MLL-AF9, respectively, as well as the wildtype protein from the second allele. […] K562 was used as a control cell line containing two MLL wildtype alleles in order to exclude compounds that display general cytotoxic effects.
MV-4-1 1 and MOLM14 were cultured in RPMI-1640 (Sigma Aldrich) supplemented with 10% fetal bovine serum (HyClone), 2 mM L-glutamine (Sigma Aldrich) and 50 μg/ml gentamycin (Gibco). K562 were propagated in RPMI-1640 (Sigma Aldrich) supplemented with 20% fetal bovine serum (HyClone), 2 mM L-glutamine (Sigma Aldrich) and 50 μg/ml gentamycin (Gibco).
In order to assess the anti-proliferative effects, 1,500 MV-4-1 1, 300 MOLM14 or 750 K562 cells were seeded in 200 μl media per well in 96-well round bottom, ultra-low attachment plates (Costar, catalogue number 7007). Cell seeding numbers were chosen based on growth curves to ensure linear growth throughout the experiment. Test compounds were added at different concentrations and the DMSO content was normalized to 0.3%>. Cells were incubated for 8d at 37° C. and 5% C02. Spheroid like growth was monitored in real-time by live-cell imaging (IncuCyteZOOM, Essenbio, 4× objective) acquiring one image every four hours for 8d. Confluence (%) as a measure of spheroid size was determined using an integrated analysis tool.
In order to determine the cumulative effect of the test compounds over time, the area under the curve (AUC) in a plot of confluence against time was calculated. Confluence at the beginning of the experiment (t=0) was used as baseline for the AUC calculation.
Absolute IC50 values were calculated according to the following procedure: % Control=(AUC sample/AUC control)*100 AUC control=mean AUC of control values(cells without compound/DMSO as vehicle control)
A non-linear curve fit was applied using the least squares (ordinary) fit method to the plot of % control versus compound concentration. Based on this, the absolute IC50 value (half maximal inhibitory concentration of the test compound causing an anti-proliferative effect of 50% relative to the vehicle control) was calculated.

Fc1ccc(CN[C@@H]2CCCN(c3ncnc4sc(CC(F)(F)F)cc34)CC2)c(F)c1 (single isomer, unassigned) (as salt: hydrochloride) [Compound 7A]
melting point: 176 °C

CC(C)[C@H](N[C@H]1CCCN(c2ncnc3sc(CC(F)(F)F)cc23)CC1)C1CNC1 (single isomer, unassigned) (as salt: hydrochloride) [Compound 32]
melting point: 190 °C

Cn1ncc2c1CCC[C@@H]2N[C@@H]1CCCN(c2ncnc3sc(CC(F)(F)F)cc23)CC1 [Compound 65B]
IC50 [1]: 284 nM
IC50 (MV-4-1 1 cells (MLL-AF4)): 4.3 µM

FC(F)(F)Cc1cc2c(N3CCC[C@@H](NCc4ccccc4)CC3)ncnc2s1 (as salt: HCl) [Compound 3, (R)N-benzyl-1-(6-(2,2,2-trifluoroethyl)thieno[2,3-d]pyrimidin-4-yl)azepan-4-amine]
melting point: 130 °C

CNC(=O)c1ccc(CNC2CCCN(c3ncnc4sc(CC(F)(F)F)cc34)CC2)cc1 (stereo not drawn) [Compound 49]
IC50 [1]: 45 nM
IC50 (MV-4-1 1 cells (MLL-AF4)): 1.1 µM

Cn1cc(CN(Cc2ccccc2)[C@@H]2CCCN(c3ncnc4sc(CC(F)(F)F)cc34)CC2)cn1 (single isomer, unassigned) [Compound 60A]
IC50 [1]: 493 nM
IC50 (MV-4-1 1 cells (MLL-AF4)): 5.5 µM

C[C@H]1CCN(c2ncnc3sc(CC(F)(F)F)cc23)CC[C@H]1NCc1ccccc1 (single isomer, unassigned) (as salt: hydrochloride) [Compound 68A]
melting point: 134 °C and 136 °C

CN(C)CCCCN(Cc1cnn(C)c1)C1CCCN(c2ncnc3sc(CC(F)(F)F)cc23)CC1 (stereo not drawn) (as salt: hydrochloride) [Compound 61]
melting point: 110 °C

Cn1cc(CNC2CCCN(c3ncnc4sc(CC(F)(F)F)cc34)CC2)cn1 (single isomer, unassigned) [Compound 11A]
IC50 [1]: 55 nM
IC50 (MV-4-1 1 cells (MLL-AF4)): 1.6 µM

Fc1ccc(CN[C@H]2CCCN(c3ncnc4sc(CC(F)(F)F)cc34)CC2)c(F)c1 (single isomer, unassigned) (as salt: hydrochloride) [Compound 7B]
melting point: 180 °C

Cn1cc2c(n1)CCC[C@@H]2N[C@@H]1CCCN(c2ncnc3sc(CC(F)(F)F)cc23)CC1 (single isomer, unassigned) [Compound 66B]
IC50 [1]: 164 nM
IC50 (MV-4-1 1 cells (MLL-AF4)): 3.8 µM

Cn1cc(CN(Cc2ccccc2)[C@H]2CCCN(c3ncnc4sc(CC(F)(F)F)cc34)CC2)cn1 (single isomer, unassigned) [Compound 60B]
IC50 [1]: 295 nM
IC50 (MV-4-1 1 cells (MLL-AF4)): 2.4 µM

Cn1cncc1CN[C@@H]1CCCN(c2ncnc3sc(CC(F)(F)F)cc23)CC1 (single isomer, unassigned) [Compound 28]
IC50 [1]: 149 nM
IC50 (MV-4-1 1 cells (MLL-AF4)): 3.4 µM

CC(C)[C@@H](NC1CCCN(c2ncnc3sc(CC(F)(F)F)cc23)CC1)C1CNC1 (single isomer, unassigned) [Compound 34]
IC50 [1]: 216 nM
IC50 (MV-4-1 1 cells (MLL-AF4)): 3.2 µM

CNCc1cccc(CNC2CCCN(c3ncnc4sc(CC(F)(F)F)cc34)CC2)c1 (stereo not drawn) [Compound 17]
IC50 [1]: 33 nM
IC50 (MV-4-1 1 cells (MLL-AF4)): 1.3 µM

CC(C)[C@H](NC1CCCN(c2ncnc3sc(CC(F)(F)F)cc23)CC1)C1CNC1 (single isomer, unassigned) [Compound 33]
IC50 [1]: 27 nM
IC50 (MV-4-1 1 cells (MLL-AF4)): 2 µM

CC(C)[C@@H](N[C@H]1CCCN(c2ncnc3sc(CC(F)(F)F)cc23)CC1)C1CNC1 (single isomer, unassigned) [Compound 36]
IC50 [1]: 170 nM
IC50 (MV-4-1 1 cells (MLL-AF4)): 2.5 µM

CN(C)CCN(Cc1ccccc1)[C@H]1CCCN(c2ncnc3sc(CC(F)(F)F)cc23)CC1 (single isomer, unassigned) [Compound 57B]
IC50 [1]: 222 nM
IC50 (MV-4-1 1 cells (MLL-AF4)): 4.4 µM

FC(F)(F)Cc1cc2c(N3CCCC(OCc4ccccc4)CC3)ncnc2s1 (stereo not drawn) [Compound 44]
IC50 [1]: 137 nM
IC50 (MV-4-1 1 cells (MLL-AF4)): 4.3 µM

C[C@H]1CCN(c2ncnc3sc(CC(F)(F)F)cc23)CC[C@H]1NCc1ccccc1 (single isomer, unassigned) [Compound 68A]
IC50 [1]: 103 nM
IC50 (MV-4-1 1 cells (MLL-AF4)): 1.9 µM

Fc1cccc(CNC2CCCN(c3ncnc4sc(CC(F)(F)F)cc34)CC2)c1 (stereo not drawn) [Compound 24]
IC50 [1]: 53 nM
IC50 (MV-4-1 1 cells (MLL-AF4)): 1.2 µM

FC(F)(F)Cc1cc2c(N3CCC[C@@H](NCc4cccnc4)CC3)ncnc2s1 (single isomer, unassigned) [Compound 29]
IC50 [1]: 40 nM
IC50 (MV-4-1 1 cells (MLL-AF4)): 2.1 µM

CN(C)CCN(Cc1ccccc1)[C@@H]1CCCN(c2ncnc3sc(CC(F)(F)F)cc23)CC1 (single isomer, unassigned) [Compound 57A]
IC50 [1]: 194 nM
IC50 (MV-4-1 1 cells (MLL-AF4)): 2.8 µM

CN(C)CCCN(Cc1ccccc1)C1CCCN(c2ncnc3sc(CC(F)(F)F)cc23)CC1 (stereo not drawn) [Compound 53]
IC50 [1]: 204 nM
IC50 (MV-4-1 1 cells (MLL-AF4)): 2.1 µM

Fc1ccccc1CNC1CCCN(c2ncnc3sc(CC(F)(F)F)cc23)CC1 (stereo not drawn) [Compound 8]
IC50 [1]: 64 nM
IC50 (MV-4-1 1 cells (MLL-AF4)): 1.6 µM

FC(F)(F)Cc1cc2c(N3CCC[C@@H](NCc4ccnnc4)CC3)ncnc2s1 (single isomer, unassigned) [Compound 30]
IC50 [1]: 186 nM
IC50 (MV-4-1 1 cells (MLL-AF4)): 4.45 µM

CC(C)[C@H](N[C@@H]1CCCN(c2ncnc3sc(CC(F)(F)F)cc23)CC1)C1CNC1 (single isomer, unassigned) [Compound 31]
IC50 [1]: 34 nM
IC50 (MV-4-1 1 cells (MLL-AF4)): 1.4 µM

COc1ccc(C)cc1CNC1CCCN(c2ncnc3sc(CC(F)(F)F)cc23)CC1 (stereo not drawn) [Compound 18]
IC50 [1]: 563 nM
IC50 (MV-4-1 1 cells (MLL-AF4)): 4.7 µM

Cc1ccc(CN[C@H]2CCCN(c3ncnc4sc(CC(F)(F)F)cc34)CC2)c(C)c1 (single isomer, unassigned) [Compound 9B]
IC50 [1]: 22 nM
IC50 (MV-4-1 1 cells (MLL-AF4)): 0.9 µM

Cc1ccc(CNC2CCCN(c3ncnc4sc(CC(F)(F)F)cc34)CC2)c(C)c1 (stereo not drawn) [Compound 9]
IC50 [1]: 36 nM
IC50 (MV-4-1 1 cells (MLL-AF4)): 1.4 µM
